Reference: patent publication US20110065208A1, “DETERMINATION AND ESTIMATION OF ABSORPTION AND DISTRIBUTION OF SUBSTANCES IN BRAIN TISSUE” (SOVICELL GMBH, priority 2008, published 2011)
Read-outs that look alike come from different tables or passages of the source.

How the values were obtained:
[1] = cited from earlier work
[2] = system: T1, AGP (α1-acid glycoprotein); assay: AGP binding constants (TRANSIL AGP Binding Kit)
T1 construct: fused on or other part: immobilised on silica beads (TRANSIL solid support)

[3] = Brain lipid-water partition coefficient log MAbrain (membrane affinity) on immobilized brain lipid membranes; assay type: physicochemical; details: for logMA_brain: Table 6, parameter set for free fraction in brain
Description: 440 mg of a brain lipid extract (Avanti Polar Lipids Inc., USA) are dissolved in 50 mL of chloroform. This solution is evaporated under reduced pressure in a glass flask in a rotating rotary evaporator, wherein a thin lipid film deposits on the wall.
The lipid film is swollen overnight in a water vapor atmosphere; subsequently, 88 mL of a buffer (20 mM HEPES, pH 7.0, 30 mM NaCl, 2 mM CaCl2) are added, and the lipid film is vesiculated by means of a high-pressure homogenizer.
5 g of the carrier material provided above are added to the vesicle solution thus produced and incubated overnight. Excess lipid is removed by washing three times with buffer (20 mM HEPES, pH 7.0, 30 mM NaCl, 2 mM CaCl2). Finally, this is followed by rebuffering in PBS (phosphate-buffered saline, 10 mM sodium phosphate, 0.9% NaCl, pH 7.4) and filling up to 25 mL with buffer. The suspension obtained is then used to determine the brain lipid-water partition coefficient, as described below.
To determine the brain lipid-water partition coefficient, a total of 5 wells of a 96-well microtiter plate are filled as follows: • Well 1: 405 μL PBS • Well 2: 375 μL PBS+30 μL suspension (see 2.) • Well 3: 357 μL PBS+48 μL suspension (see 2.) • Well 4: 338 μL PBS+77 μL suspension (see 2.) • Well 5: 405 μL PBS.
To each of these wells, 45 μL of a 500 μM solution of trifluoperazine in PBS/10% DMSO are added, and after mixing by resuspension, the solid body is separated from the supernatant by sedimentation. The concentration of the substance in the supernatant is quantified by UV measurement, and the brain lipid-water partition coefficient log MAbrain is calculated through the following equation: […]
In the equation are: • Vtotal Total volume per well • Vlipid Lipid volume per well • ctotal Substance concentration of wells 1 and 5 without binding partner • cwater Substance concentration in the supernatant of wells 2-4 with binding partner.
To determine the brain lipid-water partition coefficient, two 96-well microtiter plates are filled row by row as follows: • Row 1: 405 μL PBS • Row 2: 375 μL PBS+30 μL suspension (see 2.) • Row 3: 357 μL PBS+48 μL suspension (see 2.) • Row 4: 338 μL PBS+77 μL suspension (see 2.) • Row 5: 285 μL PBS+120 μL suspension (see 2.) • Row 6: 210 μL PBS+195 μL suspension (see 2.) • Row 7: 105 μL PBS+300 μL suspension (see 2.) • Row 8: 405 μL PBS.
A broad binding range is covered by this filling of the plates. […] After mixing by resuspension, the solid body is separated from the supernatant by sedimentation.
The concentration of the substance in the supernatant is quantified by HPLC, and the brain lipid-water partition coefficient log MAbrain is calculated through the abovementioned equation (4), wherein, in this case, Vtotal is the total volume per well, Vlipid is the lipid volume per well, ctotal is the substance concentration of rows 1 and 8 without binding partner, and cwater is the substance concentration in the supernatant of wells 2-7 with binding partner.

[4] = biological target: HSA (human serum albumin) (Homo sapiens, UniProt P02768); assay: HSA binding constants (TRANSIL HSA Binding Kit)
Description: In the equation are: • [drug]bound: Concentration of bound substance • [drug]free: Concentration of free substance in the supernatant • [protein]: Protein concentration in the respective wells.

[5] = log K^B/F, bound to free fraction in blood plasma calculated from KD^HSA and KD^AGP; assay type: in vitro ADME; details: Table 4; calculated with [HSA] 588.2 μM, [AGP] 24.4 μM
Description: The log K^B/F value represents the logarithmized ratio of the bound fraction to the free fraction in blood plasma, which has been approximately calculated from the dissociation constants KD^AGP and KD^HSA according to:
[formula] • fu Free substance concentration in plasma • [drug]total^plasma Total substance concentration in plasma • [HSA]

[6] = log BB estimated by QSAR equation (9); details: Table 5; validation set, calculated by equation (9)
Description: To estimate the plasma-brain partition coefficients, a multilinear regression was carried out according to the equation:
log BB=A*log MAbrain+B*PSA+C*MW+D*log K^B/F+E. (6)

[7] = Table 6; free fraction in brain; cited from earlier work
[8] = Table 4, test set for multilinear regression
[9] = Table 1, PBS pH 7.4, quantified by HPLC
[10] = Table 4, repeated parameter set
[11] = Table 5, values from the literature

Sequence of HSA (human serum albumin) (P02768 25-609): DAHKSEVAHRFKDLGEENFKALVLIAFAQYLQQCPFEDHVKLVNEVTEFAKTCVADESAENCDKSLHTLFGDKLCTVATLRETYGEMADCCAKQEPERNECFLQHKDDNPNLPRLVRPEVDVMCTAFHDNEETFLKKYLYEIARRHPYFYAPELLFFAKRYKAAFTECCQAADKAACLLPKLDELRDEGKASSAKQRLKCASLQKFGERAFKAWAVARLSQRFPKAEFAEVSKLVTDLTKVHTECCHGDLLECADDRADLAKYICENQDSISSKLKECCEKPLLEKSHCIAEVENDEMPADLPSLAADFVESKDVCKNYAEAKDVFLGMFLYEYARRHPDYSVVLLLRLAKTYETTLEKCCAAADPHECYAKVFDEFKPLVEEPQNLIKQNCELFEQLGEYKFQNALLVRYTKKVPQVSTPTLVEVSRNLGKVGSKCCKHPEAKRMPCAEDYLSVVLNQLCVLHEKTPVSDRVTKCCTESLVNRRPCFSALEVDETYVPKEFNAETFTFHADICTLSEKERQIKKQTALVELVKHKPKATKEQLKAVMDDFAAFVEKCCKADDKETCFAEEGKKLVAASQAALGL

SMILES	logBB [1, 8]	Kd [2] [µM]	logMAbrain [3, 9]	logMAbrain [3, 10]	Kd [4] [µM]	logK^B/F [5]	fu_brain [7]	other results
CC(=O)Oc1ccccc1C(=O)O [Acetylsalicylic acid, acetylsalicylic acid]	−0.5	460	1.40	1.40	360	0.23		
CN(C)CCC=C1c2ccccc2CCc2ccccc21 [Amitryptilline, amitryptilline]							0.009	logBB [1, 11]: 0.87; logBB_calc [6]: 1.38; logMA_brain [3]: 2.94
Cc1cc(=O)n(-c2ccccc2)n1C [Antipyrine, antipyrine]	−0.1		1.33	1.33	2700	−0.54		Kd ([2]; Table 3, quantified by HPLC, read-out: KD^AGP): 380 µM
Cn1c(=O)c2c(ncn2C)n(C)c1=O [Caffeine, caffeine]		580	1.36	1.36			0.52	logMA_brain [3]: 1.36
NC(=O)N1c2ccccc2C=Cc2ccccc21 [Carbamazepine, carbamazepine]							0.1185	logBB [1, 11]: 0; logBB_calc [6]: −0.09; logMA_brain [3]: 1.79
CN(C)CCCN1c2ccccc2Sc2ccc(Cl)cc21 [Chlorpromazine, chlorpromazine]		0.72	3.70	3.70			0.002	logMA_brain [3]: 3.70
CN/C(=N/CCSCc1nc[nH]c1C)NC#N [Cimetidine, cimetidine]	−1.42	250	1.80	1.80	920	−0.13		
Clc1cccc(Cl)c1N=C1NCCN1 [Clonidine, clonidine]	0.11	69	1.30	1.30	1900	−0.17		
CNCCCN1c2ccccc2CCc2ccccc21 [Desipramine, desipramine]	1.2	5.1			200			
CNCCC(Oc1ccc(C(F)(F)F)cc1)c1ccccc1 (stereo not shown) [Fluoxetine, fluoxetine]							0.004	logBB_calc [6]: 1.29; logMA_brain [3]: 3.52
O=C(CCCN1CCC(O)(c2ccc(Cl)cc2)CC1)c1ccc(F)cc1 [Haloperidol]							0.011	logMA_brain [3]: 2.7
CC(C)Cc1ccc(C(C)C(=O)O)cc1 (stereo not shown) [Ibuprofen, ibuprofen]	−0.18	670	1.70	1.70		3.14		
CN(C)CCCN1c2ccccc2CCc2ccccc21 [Imipramine, imipramine]	0.83	3.1			220			
COc1ccc2c(c1)c(CC(=O)O)c(C)n2C(=O)c1ccc(Cl)cc1 [Indomethacin, indomethacin]	−1.26	43	2.30	2.30		2.97		
CCN(CC)CC(=O)Nc1c(C)cccc1C [Lidocaine, lidocaine]								logBB_calc [6]: −0.08
CN1CCN2c3ccccc3Cc3ccccc3C2C1 (stereo not shown) [Mianserin, mianserin]								logBB [1, 11]: 0.99; logBB_calc [6]: 1.47
CCCCC1C(=O)N(c2ccccc2)N(c2ccccc2)C1=O [Phenylbutazone, phenylbutazone]	−0.52	70						
O=C1NC(=O)C(c2ccccc2)(c2ccccc2)N1 [Phenytoin]							0.082	
CCN(CC)CCOC(=O)c1ccc(N)cc1 [Procaine, procaine]								logBB [1, 11]: 0.05; logBB_calc [6]: −0.41
CN(C)CCCN1c2ccccc2Sc2ccccc21 [Promazine, promazine]	1.23	1.6	3.20	3.20	99	1.33		
CC(C)NCC(O)COc1cccc2ccccc12 (stereo not shown) [Propranolol, propranolol]	0.64	5.4	2.70	2.70	610	0.74		
C=C[C@H]1C[N@@]2CC[C@H]1C[C@@H]2[C@@H](O)c1ccnc2ccc(OC)cc12 [Quinidine, quinidine]		13	2.10	2.10				
CNC(=C[N+](=O)[O-])NCCSCc1ccc(CN(C)C)o1 [Ranitidine, ranitidine]								logBB [1, 11]: −1.23
O=C(O)c1ccccc1O [Salicylic acid, salicylic acid]		640	1.30	1.30		1.37		
Cn1c(=O)c2[nH]cnc2n(C)c1=O [Theophylline, theophylline]		810						
CSc1ccc2c(c1)N(CCC1CCCCN1C)c1ccccc1S2 (stereo not shown) [Thioridazine]							0.001	logMA_brain [3]: 3.74
CN1CCN(CCCN2c3ccccc3Sc3ccc(C(F)(F)F)cc32)CC1 [Trifluoperazine, trifluoperazine]	1.44	0.25	4.70	4.70	12	2.17	0.0007	logMAbrain ([3]; PBS pH 7.4, quantified by UV measurement, 5 wells): 4.7; logMA_brain [3]: 4.70
